Values joined by “and” are separate entries in the source; they are usually repeats but may differ in a detail not shown here. Equal values may be shown once. “Also recorded” adds a separate entry of the source.
Assays:
Assay type in all cases: cell-based, Chinese hamster
[1] = tested on: SREBP-2 fragment fused to PLAP (PLAP-BP2513-1141); assay: PLAP-BP assay (secreted alkaline phosphatase reporter of SREBP translocation and processing); settings: VD derivatives 10 μM, 20 h, CHO-K1 co-transfected with PLAP-BP2 and SCAP; average of two experiments
SREBP = assay: SRE-driven luciferase reporter assay of SREBP activation; settings: luciferase reporter in CHO-K1 cells, lipid-depleted medium, 20-24 h, normalized to β-galactosidase; averages of three independent experiments; read-out: IC50 (μM), inhibitory effect on the activation of SREBP
Description: The transfected cells were treated with DMSO alone, sterols (10 μg/mL cholesterol and 1.0 μg/mL 25-HC), or varied concentrations of 25(OH)D in a medium containing lipid-free serum. Luciferase activity was measured after 20 h incubation, and the data were normalized to β-galactosidase activity. Values are the mean±SD of three independent experiments.
The molecules in a chemical library which consists of 280 endogenous lipid related molecules were screened for their ability to inhibit the expression of a luciferase reporter gene. In this gene, three repeats of sterol regulatory elements (SREs) control expression of luciferase. Lipid depletion activates SREBPs, which bind to the SRE domain and work as transcription factors to express luciferase. The SREBP-responsive reporter construct was co-transfected into Chinese hamster ovary K1 (CHO-K1) cells, along with a control β-galactosidase (β-gal) reporter gene. A constitutively active actin promoter in the reporter gene drives the expression of β-gal. The levels of luciferase expression from the SREBP-responsive reporter gene were normalized to the levels of β-gal expression.
CHO-K1 cells were maintained in a medium A (1:1 mixture of Ham's F-12 medium and Dulbecco's modified Eagle medium, supplemented with 100 units/mL penicillin, 100 μg/mL streptomycin sulfate, and 5% (v/v) fetal bovine serum) at 37° C. under humidified 5% CO2.
On day 0, CHO-K1 cells were added to 96-well plates at 1.0×10^4 cells per well in medium A. On day 1, the cells were co-transfected with an SRE-1-driven luciferase reporter construct (pSRE-Luc) and pAc-β-gal at a 20/1 ratio, using FuGENE(Registered trademark) HD transfection reagent (Promega), according to the manufacturer's protocol. After 8-12 h of incubation, the cells were washed with PBS buffer, then incubated in medium B containing the specific test compounds. […] After 20-24 h of incubation, the cells in each well were lysed by freeze-thaw with Reporter Lysis Buffer (Promega), and aliquots were used to measure luciferase and β-galactosidase activities. Luciferase activity was measured using the Steady-Glo(Registered trademark) Luciferase Assay System (Promega), and β-galactosidase activity was measured using the β-galactosidase Enzyme Assay System (Promega). Luciferase activity was normalized to β-galactosidase activity.

SREBP-2 = assay: Western-blot analysis of SREBP-2 in CHO-K1 cells; settings: 5 μM, 18 h, CHO-K1 cells (FIG. 3)
Description: CHO-K1 cells were treated with DMSO alone or each molecule (5 μM) for 18 h. The levels of precursor and mature forms of SREBP-2 were analyzed by Western-blot. Western-blots of actin are shown in lower panel as a loading control.
CHO-K1 cells were treated with DMSO alone or each molecule (5 μM) for 16 h. The levels of precursor and mature forms of SREBP-2 were analyzed by Western-blot. Western-blots of actin are shown in lower panel as a loading control.
(§1) On day 0, CHO-K1 cells were added to 6-well plates at 3.0×10^5 cells per well in medium A. On day 1, the cells were washed with PBS, and then incubated in medium B in the absence or presence of specific test compounds (5 μM). After 16 h of incubation, the cells were washed three times with cold PBS, and lysed with a buffer A (50 mM Tris-HCl (pH 7.5), 150 mM NaCl, 1% (v/v) Nonidet P40, 0.5% (w/v) sodium deoxycholate, 8 M urea, and protease inhibitor cocktail (Nacalai)). The cell lysate were passed 16 times through a 25 G needle and centrifuged at 7,000 g at 4° C. for 10 min. The supernatants were transferred to new tubes, and the pellets were extracted with a buffer A. The resulting buffer was centrifuged at 7,000 g at 4° C. for 10 min, and the supernatants were combined to the previous ones. The resulting lysate was mixed with 0.20 volume of 6×SDS sample buffer (Nacalai) and incubated at room temperature for 30 min. The samples were separated on a 10% SDS-PAGE gel and blotted, using mouse monoclonal antibodies against SREBP-2 (IgG-7D4), SCAP (IgG-9D5), c-Myc (IgG1-MC045), and actin (AC-40). The specific bands were visualized using enhanced chemiluminescence (ECL Prime Western Blotting Detection Reagent, GE Healthcare) on an ImageQuant LAS 500 (GE Healthcare).

SCAP [2] = assay: Western-blot analysis of SCAP levels and ubiquitination in CHO-K1 cells
Description: (§2) After incubation for the indicated time, the levels of SCAP and precursor and mature forms of SREBP-2 were analyzed by Western-blot. Western-blots of actin are shown in lower panel as a loading control.
(§3) CHO-K1 cells were treated with DMSO alone or 25(OH)D (5 μM) in the presence or absence of MG-132 (10 μM) for 5 h. The levels of Myc-SCAP were analyzed by Western-blot. Western-blots of actin are shown in lower panel as a loading control.
(§4) CHO-K1 cells were treated with DMSO alone (−) or 25(OH)D (5 μM, +). After 2 h incubation, each dish received MG-132 (10 μM). Following incubation for 2 h, cells were harvested and subjected to immunoprecipitation with monoclonal anti-c-Myc-conjugated agarose beads. The ubiquitination of SCAP was analyzed by Western-blot.
as §1

SCAP [3] = molecular target: T1, SCAP (Cricetulus griseus, UniProt P97260); assay: as above; settings: 5 μM, CHO-K1 cells, different times (FIG. 4)
T1 construct: endogenous in cells; host or cells: CHO-K1
T1 sequence (P97260 1-1276): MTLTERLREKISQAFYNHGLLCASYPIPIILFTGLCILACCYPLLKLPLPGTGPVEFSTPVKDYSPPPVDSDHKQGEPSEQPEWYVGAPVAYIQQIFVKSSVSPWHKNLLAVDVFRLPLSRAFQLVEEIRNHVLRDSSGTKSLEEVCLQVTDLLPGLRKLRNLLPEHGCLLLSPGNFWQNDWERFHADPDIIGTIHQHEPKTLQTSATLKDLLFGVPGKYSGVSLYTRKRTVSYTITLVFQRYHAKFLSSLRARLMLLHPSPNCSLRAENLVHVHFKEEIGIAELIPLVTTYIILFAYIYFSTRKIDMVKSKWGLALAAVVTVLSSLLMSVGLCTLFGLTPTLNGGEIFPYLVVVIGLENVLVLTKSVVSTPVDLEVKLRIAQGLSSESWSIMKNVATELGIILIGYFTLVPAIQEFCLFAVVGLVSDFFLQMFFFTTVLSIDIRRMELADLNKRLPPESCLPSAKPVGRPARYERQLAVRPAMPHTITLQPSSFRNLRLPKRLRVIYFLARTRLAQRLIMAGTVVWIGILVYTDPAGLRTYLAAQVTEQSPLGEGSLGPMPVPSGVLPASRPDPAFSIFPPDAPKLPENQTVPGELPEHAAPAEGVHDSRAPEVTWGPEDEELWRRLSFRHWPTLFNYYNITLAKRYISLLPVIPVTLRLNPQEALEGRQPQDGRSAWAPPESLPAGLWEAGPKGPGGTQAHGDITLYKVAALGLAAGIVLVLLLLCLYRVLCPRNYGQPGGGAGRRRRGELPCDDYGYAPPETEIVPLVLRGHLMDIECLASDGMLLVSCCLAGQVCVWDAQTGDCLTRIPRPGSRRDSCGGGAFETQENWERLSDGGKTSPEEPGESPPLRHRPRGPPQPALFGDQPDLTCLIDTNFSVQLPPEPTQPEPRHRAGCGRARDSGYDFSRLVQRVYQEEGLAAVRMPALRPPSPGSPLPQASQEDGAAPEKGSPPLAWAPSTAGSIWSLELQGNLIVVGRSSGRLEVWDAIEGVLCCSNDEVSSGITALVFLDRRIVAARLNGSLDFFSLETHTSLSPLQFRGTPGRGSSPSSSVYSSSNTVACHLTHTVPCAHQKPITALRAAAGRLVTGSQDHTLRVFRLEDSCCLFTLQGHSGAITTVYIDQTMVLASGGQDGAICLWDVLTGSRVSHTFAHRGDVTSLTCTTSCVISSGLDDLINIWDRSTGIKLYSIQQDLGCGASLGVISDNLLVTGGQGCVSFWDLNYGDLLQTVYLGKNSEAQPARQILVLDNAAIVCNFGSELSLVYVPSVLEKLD
Description: as §2, §3, §4, §1

- IC50 (SREBP): 1 µM and 1.09 µM
- levels of SCAP (SCAP [3]): reduced
Compound: C=C1CC[C@H](O)C/C1=C/C=C1\CCC[C@]2(C)[C@@H]([C@H](C)CCCC(C)(C)O)CC[C@@H]12 [25(OH)D, 25-hydroxyvitamin D3]
- secretion of PLAP [1]: inhibited the secretion of PLAP to a greater extent than sterol; also recorded: caused a greater decrease in PLAP secretion than did cholesterol
- level of mature form of SREBP (SREBP-2): decreased
- level of precursor form of SREBP (SREBP-2): decreased
- ubiquitination of SCAP (SCAP [2]; 5 μM, 2 h then MG-132 10 μM for 2 h, immunoprecipitation (FIG. 6)): accelerated
- decrease in the levels of SCAP (Myc-SCAP) on addition of MG-132 (SCAP [2]; 25(OH)D 5 μM with MG-132 10 μM, 5 h (FIG. 5)): cancelled
